{
  "source": "patent US8097759B2",
  "about": "“Inflammatory cytokine release inhibitor” (Institute of Medicinal Molecular Design, Inc., priority 2000, dated 2012)",
  "system": "NF-κB activation",
  "assay": "NF-κB activation reporter assay (pNFκB-Luc luciferase) under TNF-α stimulation",
  "assay_type": "cell-based, human",
  "details": "Homo sapiens, HepG2 or HeLa cells, TNF-α 40 ng/ml, 4 hours, read-out: The rate of inhibitory activity against NF-κB activation (%); for inhibition at 1 µg/mL: Concentration of the agent: 1 μg/mL; for inhibition at 10 µg/mL: Concentration of the agent: 10 μg/mL",
  "data": [
    {"smiles": "O=C(Nc1cccc(C(F)(F)F)c1F)c1cc(Cl)ccc1O", "note": "[Compound 107]", "values": [
      {"measurement": "inhibition at 1 µg/mL", "value": 92.3, "unit": "%"},
      {"measurement": "inhibition at 10 µg/mL", "value": 95, "unit": "%"}
    ]},
    {"smiles": "O=C(Nc1ccc(F)c(C(F)(F)F)c1)c1cc(Cl)ccc1O", "note": "[Compound 108]", "values": [
      {"measurement": "inhibition at 1 µg/mL", "value": 94.7, "unit": "%"},
      {"measurement": "inhibition at 10 µg/mL", "value": 97.6, "unit": "%"}
    ]},
    {"smiles": "O=C(Nc1ccc(Cl)c(C(F)(F)F)c1)c1cc(Br)ccc1O", "note": "[Compound 109]", "values": [
      {"measurement": "inhibition at 1 µg/mL", "value": 83, "unit": "%"},
      {"measurement": "inhibition at 10 µg/mL", "value": 88.8, "unit": "%"}
    ]},
    {"smiles": "O=C(Nc1cc(F)cc(C(F)(F)F)c1)c1cc(Cl)ccc1O", "note": "[Compound 110]", "values": [
      {"measurement": "inhibition at 1 µg/mL", "value": 94.7, "unit": "%"},
      {"measurement": "inhibition at 10 µg/mL", "value": 98.9, "unit": "%"}
    ]},
    {"smiles": "O=C(Nc1cc(C(F)(F)F)ccc1F)c1cc(Cl)ccc1O", "note": "[Compound 112]", "values": [
      {"measurement": "inhibition at 1 µg/mL", "value": 93.1, "unit": "%"},
      {"measurement": "inhibition at 10 µg/mL", "value": 95.9, "unit": "%"}
    ]},
    {"smiles": "O=C(Nc1cc(C(F)(F)F)ccc1Cl)c1cc(Cl)ccc1O", "note": "[Compound 113]", "values": [
      {"measurement": "inhibition at 1 µg/mL", "value": 94.8, "unit": "%"},
      {"measurement": "inhibition at 10 µg/mL", "value": 97.1, "unit": "%"}
    ]},
    {"smiles": "O=C(Nc1cc(C(F)(F)F)ccc1Cl)c1cc(Br)ccc1O", "note": "[Compound 114]", "values": [
      {"measurement": "inhibition at 1 µg/mL", "value": 88.9, "unit": "%"},
      {"measurement": "inhibition at 10 µg/mL", "value": 94.1, "unit": "%"}
    ]},
    {"smiles": "O=C(Nc1ccc([N+](=O)[O-])c(C(F)(F)F)c1)c1cc(Cl)ccc1O", "note": "[Compound 115]", "values": [
      {"measurement": "inhibition at 1 µg/mL", "value": 89, "unit": "%"},
      {"measurement": "inhibition at 10 µg/mL", "value": 94.3, "unit": "%"}
    ]},
    {"smiles": "O=C(Nc1cc(C(F)(F)F)ccc1[N+](=O)[O-])c1cc(Cl)ccc1O", "note": "[Compound 116]", "values": [
      {"measurement": "inhibition at 1 µg/mL", "value": 86.3, "unit": "%"},
      {"measurement": "inhibition at 10 µg/mL", "value": 96.7, "unit": "%"}
    ]},
    {"smiles": "Cc1c(NC(=O)c2cc(Cl)ccc2O)cccc1C(F)(F)F", "note": "[Compound 118]", "values": [
      {"measurement": "inhibition at 1 µg/mL", "value": 94.1, "unit": "%"},
      {"measurement": "inhibition at 10 µg/mL", "value": 96.3, "unit": "%"}
    ]},
    {"smiles": "Cc1ccc(NC(=O)c2cc(Cl)ccc2O)cc1C(F)(F)F", "note": "[Compound 119]", "values": [
      {"measurement": "inhibition at 1 µg/mL", "value": 88.1, "unit": "%"},
      {"measurement": "inhibition at 10 µg/mL", "value": 91.7, "unit": "%"}
    ]},
    {"smiles": "Cc1ccc(C(F)(F)F)cc1NC(=O)c1cc(Cl)ccc1O", "note": "[Compound 120]", "values": [
      {"measurement": "inhibition at 1 µg/mL", "value": 93.8, "unit": "%"},
      {"measurement": "inhibition at 10 µg/mL", "value": 97.9, "unit": "%"}
    ]},
    {"smiles": "COc1ccc(NC(=O)c2cc(Cl)ccc2O)cc1C(F)(F)F", "note": "[Compound 121]", "values": [
      {"measurement": "inhibition at 1 µg/mL", "value": 85.5, "unit": "%"},
      {"measurement": "inhibition at 10 µg/mL", "value": 96.5, "unit": "%"}
    ]},
    {"smiles": "COc1cc(NC(=O)c2cc(Br)ccc2O)cc(C(F)(F)F)c1", "note": "[Compound 122]", "values": [
      {"measurement": "inhibition at 1 µg/mL", "value": 84.5, "unit": "%"},
      {"measurement": "inhibition at 10 µg/mL", "value": 97.2, "unit": "%"}
    ]},
    {"smiles": "COc1ccc(C(F)(F)F)cc1NC(=O)c1cc(Br)ccc1O", "note": "[Compound 123]", "values": [
      {"measurement": "inhibition at 1 µg/mL", "value": 76.6, "unit": "%"},
      {"measurement": "inhibition at 10 µg/mL", "value": 93.4, "unit": "%"}
    ]},
    {"smiles": "CSc1ccc(C(F)(F)F)cc1NC(=O)c1cc(Cl)ccc1O", "note": "[Compound 125]", "values": [
      {"measurement": "inhibition at 1 µg/mL", "value": 94.6, "unit": "%"},
      {"measurement": "inhibition at 10 µg/mL", "value": 99.1, "unit": "%"}
    ]},
    {"smiles": "O=C(Nc1cc(C(F)(F)F)ccc1N1CCCC1)c1cc(Br)ccc1O", "note": "[Compound 126]", "values": [
      {"measurement": "inhibition at 1 µg/mL", "value": 95.8, "unit": "%"},
      {"measurement": "inhibition at 10 µg/mL", "value": 97.8, "unit": "%"}
    ]},
    {"smiles": "O=C(Nc1cc(C(F)(F)F)ccc1N1CCOCC1)c1cc(Br)ccc1O", "note": "[Compound 127]", "values": [
      {"measurement": "inhibition at 1 µg/mL", "value": 81.8, "unit": "%"},
      {"measurement": "inhibition at 10 µg/mL", "value": 86.4, "unit": "%"}
    ]},
    {"smiles": "O=C(Nc1ccc(C(F)(F)F)cc1)c1cc(Cl)ccc1O", "note": "[Compound 128]", "values": [
      {"measurement": "inhibition at 1 µg/mL", "value": 87.2, "unit": "%"},
      {"measurement": "inhibition at 10 µg/mL", "value": 95, "unit": "%"}
    ]},
    {"smiles": "O=C(Nc1ccc(C(F)(F)F)cc1Cl)c1cc(Br)ccc1O", "note": "[Compound 129]", "values": [
      {"measurement": "inhibition at 1 µg/mL", "value": 75.4, "unit": "%"},
      {"measurement": "inhibition at 10 µg/mL", "value": 85.8, "unit": "%"}
    ]},
    {"smiles": "O=C(Nc1ccccc1)c1cc(Br)ccc1O", "note": "[Compound 139]", "values": [
      {"measurement": "inhibition at 1 µg/mL", "value": -48.2, "unit": "%"},
      {"measurement": "inhibition at 10 µg/mL", "value": 60.2, "unit": "%"}
    ]},
    {"smiles": "O=C(Nc1cccc(Cl)c1)c1cc(Br)ccc1O", "note": "[Compound 140]", "values": [
      {"measurement": "inhibition at 1 µg/mL", "value": 94.2, "unit": "%"},
      {"measurement": "inhibition at 10 µg/mL", "value": 96.7, "unit": "%"}
    ]},
    {"smiles": "O=C(Nc1ccc(Cl)cc1)c1cc(Br)ccc1O", "note": "[Compound 141]", "values": [
      {"measurement": "inhibition at 1 µg/mL", "value": 83.3, "unit": "%"},
      {"measurement": "inhibition at 10 µg/mL", "value": 96.4, "unit": "%"}
    ]},
    {"smiles": "O=C(Nc1cc(Cl)ccc1Cl)c1cc(Cl)ccc1O", "note": "[Compound 142]", "values": [
      {"measurement": "inhibition at 1 µg/mL", "value": 95.1, "unit": "%"},
      {"measurement": "inhibition at 10 µg/mL", "value": 96.9, "unit": "%"}
    ]},
    {"smiles": "O=C(Nc1ccc(Cl)c(Cl)c1)c1cc(Br)ccc1O", "note": "[Compound 143]", "values": [
      {"measurement": "inhibition at 1 µg/mL", "value": 91.6, "unit": "%"},
      {"measurement": "inhibition at 10 µg/mL", "value": 93.8, "unit": "%"}
    ]},
    {"smiles": "O=C(Nc1cc(F)cc(F)c1)c1cc(Br)ccc1O", "note": "[Compound 144]", "values": [
      {"measurement": "inhibition at 1 µg/mL", "value": 91.8, "unit": "%"},
      {"measurement": "inhibition at 10 µg/mL", "value": 96.8, "unit": "%"}
    ]},
    {"smiles": "O=C(Nc1cc(Cl)cc(Cl)c1)c1ccccc1O", "note": "[Compound 145]", "values": [
      {"measurement": "inhibition at 1 µg/mL", "value": 92.9, "unit": "%"},
      {"measurement": "inhibition at 10 µg/mL", "value": 95.5, "unit": "%"}
    ]},
    {"smiles": "O=C(Nc1cc(Cl)cc(Cl)c1)c1cc(F)ccc1O", "note": "[Compound 146]", "values": [
      {"measurement": "inhibition at 1 µg/mL", "value": 94.2, "unit": "%"},
      {"measurement": "inhibition at 10 µg/mL", "value": 97, "unit": "%"}
    ]}
  ]
}
